# Target: SIK2 (Homo sapiens, UniProt Q9H0K1)
# Assay: SIK2 Enzymatic Assay High Version 2 (High ATP)
# Type: biochemical
# Conditions: enzyme 6 nM, 6 mM ATP and 400 μM HDAC5tide (each 2× final concentration); 30 minutes pre-incubation, 2 hours; ADP-Glo Max luminescence; read-out: SIK2 high ATP IC50 (μM) (Test Example 2)
# In short: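 At room temperature, enzyme (6 nM, 2× final) was preincubated with compound for 30 min, then 6 mM ATP and 400 μM HDAC5tide (both 2× final) were added for 2 h. ADP formed was measured by ADP-Glo Max (2 h reagent, 1 h detection) using luminescence.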
# Sequence of SIK2 (Q9H0K1 whole entry, species assumed): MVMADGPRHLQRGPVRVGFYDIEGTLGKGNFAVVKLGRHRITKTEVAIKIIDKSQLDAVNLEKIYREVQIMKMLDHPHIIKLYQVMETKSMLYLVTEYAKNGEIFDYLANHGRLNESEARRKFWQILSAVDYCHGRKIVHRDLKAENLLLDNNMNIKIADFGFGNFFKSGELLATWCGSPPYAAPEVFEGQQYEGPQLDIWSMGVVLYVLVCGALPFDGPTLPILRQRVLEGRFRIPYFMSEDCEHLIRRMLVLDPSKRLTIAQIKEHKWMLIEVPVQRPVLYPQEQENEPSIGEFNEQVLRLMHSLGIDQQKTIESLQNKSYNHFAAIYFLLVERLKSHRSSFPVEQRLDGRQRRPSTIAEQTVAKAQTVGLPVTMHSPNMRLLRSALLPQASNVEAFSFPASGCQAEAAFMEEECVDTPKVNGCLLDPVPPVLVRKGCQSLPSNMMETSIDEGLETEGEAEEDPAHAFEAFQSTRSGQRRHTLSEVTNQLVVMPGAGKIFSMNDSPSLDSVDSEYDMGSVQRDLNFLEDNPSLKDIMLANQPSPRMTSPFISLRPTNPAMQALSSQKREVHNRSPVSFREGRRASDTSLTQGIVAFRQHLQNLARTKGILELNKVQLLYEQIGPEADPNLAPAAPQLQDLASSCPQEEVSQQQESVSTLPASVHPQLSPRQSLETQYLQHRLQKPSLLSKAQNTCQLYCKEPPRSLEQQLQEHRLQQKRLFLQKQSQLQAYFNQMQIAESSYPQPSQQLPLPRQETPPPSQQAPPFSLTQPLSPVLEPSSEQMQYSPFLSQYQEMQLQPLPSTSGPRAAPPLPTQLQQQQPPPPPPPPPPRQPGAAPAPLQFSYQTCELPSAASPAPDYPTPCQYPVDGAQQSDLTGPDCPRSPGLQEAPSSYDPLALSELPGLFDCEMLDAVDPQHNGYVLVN
row,Compound,IC50 [µM]
1,"Cc1cc(-c2cn3cc(Nc4cc(C)nc(C)n4)nc3cn2)c(O[C@H]2CC[C@H](O)CC2)cn1 [Example 507, 4-[[4-[2-[(2,6-dimethylpyrimidin-4-yl)amino]imidazo[1,2-a]pyrazin-6-yl]-6-methyl-3-pyridyl]oxy]cyclohexanol]",0.0297
2,"Cc1cc(Nc2cc3cc(-c4cc(OC(F)F)ncc4OC[C@@H]4CC(=O)NC4(C)C)ccn3n2)nc(C)n1 (single isomer, unassigned) [Example 731]",0.00997
3,"Cc1cc(-c2ccn3nc(Nc4ccc(S(=O)(=O)N(C)C)cc4)cc3c2)c(O[C@H]2CC[C@H](O)CC2)cn1 [Example 324, 4-[[5-[5-(4-hydroxycyclohexoxy)-2-methyl-4-pyridyl]pyrazolo[1,5-a]pyridin-2-yl]amino]-N,N-dimethyl-benzenesulfonamide]",0.0329
4,"Cc1cc(-c2cn3cc(Nc4cc(C)nc(C)n4)nc3cn2)c(O[C@H]2CC[C@@H](O)CC2)cn1 [Example 506, 4-[[4-[2-[(2,6-dimethylpyrimidin-4-yl)amino]imidazo[1,2-a]pyrazin-6-yl]-6-methyl-3-pyridyl]oxy]cyclohexanol]",0.0178
5,"Cc1cc(-c2ccn3nc(Nc4ccc(C(F)(F)F)cn4)cc3c2)c(OC[C@@H]2CNCCO2)cn1 [Example 424, 5-[2-methyl-5-[[(2S)-morpholin-2-yl]methoxy]-4-pyridyl]-N-[5-(trifluoromethyl)-2-pyridyl]pyrazolo[1,5-a]pyridin-2-amine]",0.00766
6,"Cc1cc(-c2ccn3nc(Nc4cc(C)nc(N5CCCC5)n4)cc3c2)c(O[C@H]2CC[C@H](O)CC2)cn1 [Example 287, 4-[[6-methyl-4-[2-[(6-methyl-2-pyrrolidin-1-yl-pyrimidin-4-yl)amino]pyrazolo[1,5-a]pyridin-5-yl]-3-pyridyl]oxy]cyclohexanol]",0.00144
7,"Cc1cc(-c2ccn3nc(NC(=O)C4CC4)cc3c2)c(O[C@@H]2CCC[C@H](O)C2)cn1 (single isomer, unassigned) [Example 602, (1*R, 3*S)—N-[5-[5-(3-hydroxycyclohexoxy)-2-methyl-4-pyridyl]pyrazolo[1,5-a]pyridin-2-yl]cyclopropanecarboxamide]",0.113

# Results, then the compound that gave them:
row,IC50 [µM],Compound
1,0.0058,"CC(=O)NC(C)(C)COc1cnc(C)cc1-c1ccn2nc(Nc3cc(C)nc(C)n3)cc2c1 [Example 360, N-[2-[[4-[2-[(2,6-dimethylpyrimidin-4-yl)amino]pyrazolo[1,5-a]pyridin-5-yl]-6-methyl-3-pyridyl]oxy]-1,1-dimethyl-ethyl]acetamide]"
2,0.0462,"Cc1cc(-c2ccn3nc(Nc4cc(C)nc(C)n4)cc3c2)c(OC[C@H](O)C2(C)CC2)cn1 (single isomer, unassigned) [Example 548, (*R)-2-[[4-[2-[(2,6-dimethylpyrimidin-4-yl)amino]pyrazolo[1,5-a]pyridin-5-yl]-6-methyl-3-pyridyl]oxy]-1-(1-methylcyclopropyl)ethanol]"
3,0.00856,"Cc1cc(-c2ccn3nc(Nc4cc(C)c(=O)[nH]n4)cc3c2)c(OCC(C)(C)O)cn1 [Example 208, 3-[[5-[5-(2-hydroxy-2-methyl-propoxy)-2-methyl-4-pyridyl]pyrazolo[1,5-a]pyridin-2-yl]amino]-5-methyl-1H-pyridazin-6-one]"
4,0.0306,"CC(C)(C#N)COc1cnc(OC(F)F)cc1-c1ccn2nc(Nc3ccnc(N)n3)cc2c1 [Example 705, 3-[[4-[2-[(2-aminopyrimidin-4-yl)amino]pyrazolo[1,5-a]pyridin-5-yl]-6-(difluoromethoxy)-3-pyridyl]oxy]-2,2-dimethyl-propanenitrile]"
5,0.0831,"CC#Cc1cc(-c2ccn3nc(Nc4cc(C)nc(C)n4)cc3c2)c(OCC(C)(C)C#N)cn1 [Example 670, 3-[[4-[2-[(2,6-dimethylpyrimidin-4-yl)amino]pyrazolo[1,5-a]pyridin-5-yl]-6-prop-1-ynyl-3-pyridyl]oxy]-2,2-dimethyl-propanenitrile]"
